From PubChem BioAssay AID1963973 (Molecular Pharmacology Branch, DTP, NCI, 2024)

Test system: 883617-216-R-J1-PDC tumor spheroids, viability
Test: Anticancer human tumor 883617-216-R-J1-PDC patient-derived bladder carcinoma cell line growth inhibition [PI3K]
Settings: spheroids with HUVEC and MSC; for IC50: curve of first compound; for viability, T/C: stronger effect = lower value
Excerpt: Combinatorial screen of targeted agents with the PI3K inhibitors inavolisib, alpelisib, duvelisib, and copanlisib in multi-cell type tumor spheroids
A high-throughput screen of multi-cell type tumor spheroids was designed to identify active combinations of targeted small molecules and PI3K pathway inhibitors. Complex spheroids include a stromal component modeled by human endothelial cells (HUVEC) and fibroblasts modeled by human mesenchymal stem cells (MSCs). The concentration ranges selected for each drug and investigational agent were based upon clinically achievable concentrations if the clinical Cmax of the agent was known.
Compounds. The drugs and investigational agents: inavolisib (NSC800729), alpelisib (NSC765974), duvelisib (NSC772469), copanlisib (NSC816437), ipatasertib (NSC767898), afuresertib (NSC778305), talazoparib (NSC767125), sapanisertib (NSC764658), selumetinib (NSC741078), tovorafenib (DAY101, NSC766906), vemurafenib (NSC761431), ravoxertinib (NSC781343), sotorasib (NSC818433), MRTX1133 (NSC 836407), abemaciclib (NSC 768073), palbociclib (NSC758247), venetoclax (NSC 766270), SY5609 (NSC837396), enzalutamide (NSC755605), and darolutamide (NSC825331), were obtained from the National Cancer Institute (NCI) Developmental Therapeutics Program Chemical Repository. The FDA-approved anticancer drug set is available from the NCI Developmental Therapeutics Program. […] The stock solutions were prepared in dimethyl sulfoxide (DMSO, Sigma-Aldrich, St. Louis, MO, cat. D2650) at 800-fold the tested concentration and stored at -70 degrees C prior to their use. All drugs and investigational agents were tested over a range starting from a high concentration at or near the clinical Cmax and decreasing in half-log increments. If the clinical Cmax for an agent had not been determined, the highest concentration tested was 10 microM.
Cell Culture. All cells were maintained in an incubator at 37 degrees C and 5% CO2 with 95% humidity. The PDC lines were cultured according to standard operating procedures established by the NCI PDMR (https://pdmr.cancer.gov/sops/default.htm). All PDCs were thawed and cultured in Matrigel-coated flasks prepared with a working solution of 1X Ham's F-12 nutrient mix, without supplementation (Invitrogen, Waltham, MA, cat. 11765054), 100 U/mL penicillin-streptomycin (Invitrogen, cat. 15140122), and 2.5% Matrigel (Corning Inc., Corning, NY, cat. 354248) for the first three passages. The 354836-022-R-J1-PDC, 475296-252-R-J1-PDC, and 997726-040-R-J2-PDC lines were cultured in 6A media, which includes advanced DMEM/F-12 (Thermo Fisher Scientific, cat. 12634028), 10 mM HEPES (Thermo Fisher Scientific, cat. 15630080), 1X GlutaMAX supplement (Thermo Fisher Scientific, cat. 35050061), 0.1 mg/mL primocin (InvivoGen, San Diego, CA, cat. ant-pm-2), 10% defined fetal bovine serum, heat inactivated (HyClone Laboratories Inc., Logan, UT, cat. SH30070.03HI), 50% L-WRN conditioned media (ATCC, cat. CRL-3276), 1.25 mM N-Acetyl-L-cysteine (Sigma-Aldrich, cat. A9165), 10 mM nicotinamide (Sigma-Aldrich, cat. N0636), 1X B-27 supplement (Thermo Fisher Scientific, cat. 17504044), 1X N-2 supplement (Thermo Fisher Scientific, cat. 17502048), and 10 microM Y-27632 dihydrochloride (Tocris Bioscience, Bristol, United Kingdom, cat. 1254). The 624824-186-R-J2-PDC line was cultured in 6C/Colon 1B media, which includes all 6A media components plus 50 ng/mL human EGF recombinant protein (Thermo Fisher Scientific, cat. PHG0311). […]
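Further: spheroids exposed to agents for 7 days before the viability read.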

With `CC1(C)CCC(CN2CCN(c3ccc(C(=O)NS(=O)(=O)c4ccc(NCC5CCOCC5)c([N+](=O)[O-])c4)c(Oc4cnc5[nH]ccc5c4)c3)CC2)=C(c2ccc(Cl)cc2)C1` + CC(Nc1ncnc2nc[nH]c12)c1cc2cccc(Cl)c2c(=O)n1-c1ccccc1 the IC50 (second compound 0.0316 µM) was > 10 µM, the IC50 (second compound 0.1 µM) was > 10 µM and the IC50 (second compound 0.316 µM) was 8.99 µM. The IC50 (second compound 1 µM) was 7.69 µM, the IC50 (second compound 3.16 µM) was 6.4 µM and the IC50 (second compound 10 µM) was < 0.0316 µM. For the same compound, the viability, T/C (second compound 0.0316 µM, first compound 0.0316 µM) was 93.1%, the viability, T/C (second compound 0.0316 µM, first compound 0.1 µM) was 87.2% and the viability, T/C (second compound 0.0316 µM, first compound 0.316 µM) was 93.8%. The viability, T/C (second compound 0.0316 µM, first compound 1 µM) was 87.7%, the viability, T/C (second compound 0.0316 µM, first compound 3.16 µM) was 87% and the viability, T/C (second compound 0.0316 µM, first compound 10 µM) was 50.8%. For the same compound, the viability, T/C (second compound 0.1 µM, first compound 0.0316 µM) was 97%, the viability, T/C (second compound 0.1 µM, first compound 0.1 µM) was 84.3% and the viability, T/C (second compound 0.1 µM, first compound 0.316 µM) was 91.7%. The viability, T/C (second compound 0.1 µM, first compound 1 µM) was 97.5%, the viability, T/C (second compound 0.1 µM, first compound 3.16 µM) was 90.8% and the viability, T/C (second compound 0.1 µM, first compound 10 µM) was 52%. The viability, T/C (second compound 0.316 µM, first compound 0.0316 µM) was 94.7%, the viability, T/C (second compound 0.316 µM, first compound 0.1 µM) was 96.2% and the viability, T/C (second compound 0.316 µM, first compound 0.316 µM) was 92%. It also gave a viability, T/C (second compound 0.316 µM, first compound 1 µM) of 88%, a viability, T/C (second compound 0.316 µM, first compound 3.16 µM) of 76.6% and a viability, T/C (second compound 0.316 µM, first compound 10 µM) of 46.9%. It also gave a viability, T/C (second compound 1 µM, first compound 0.0316 µM) of 85.2%, a viability, T/C (second compound 1 µM, first compound 0.1 µM) of 85.8% and a viability, T/C (second compound 1 µM, first compound 0.316 µM) of 88%. It also gave a viability, T/C (second compound 1 µM, first compound 1 µM) of 79.3%, a viability, T/C (second compound 1 µM, first compound 3.16 µM) of 70.1% and a viability, T/C (second compound 1 µM, first compound 10 µM) of 44.2%. It also gave a viability, T/C (second compound 3.16 µM, first compound 0.0316 µM) of 62.6%, a viability, T/C (second compound 3.16 µM, first compound 0.1 µM) of 76% and a viability, T/C (second compound 3.16 µM, first compound 0.316 µM) of 62.6%. It also gave a viability, T/C (second compound 3.16 µM, first compound 1 µM) of 65.7%, a viability, T/C (second compound 3.16 µM, first compound 3.16 µM) of 59.2% and a viability, T/C (second compound 3.16 µM, first compound 10 µM) of 44.1%. The viability, T/C (second compound 10 µM, first compound 0.0316 µM) was 49%, the viability, T/C (second compound 10 µM, first compound 0.1 µM) was 52.6% and the viability, T/C (second compound 10 µM, first compound 0.316 µM) was 46.3%. It also gave a viability, T/C (second compound 10 µM, first compound 1 µM) of 40.3%, a viability, T/C (second compound 10 µM, first compound 3.16 µM) of 46.1% and a viability, T/C (second compound 10 µM, first compound 10 µM) of 28.3%.
